Key:
Cbl-b = Cbl-b (Homo sapiens (Human), UniProt Q13191); assay: Cbl-b LCK Ub TR-FRET assay (Cbl-b Lck HTRF); assay type: biochemical; settings: for IC50: Cbl-b LCK Ub TR-FRET; for fold-selectivity (Cbl-b over C-cbl): ratio C-cbl Lck HTRF IC50 / Cbl-b Lck HTRF IC50
Description: (§1) 6 μL of detection mixture was added to all wells and briefly centrifuged before incubating for 20 min at room temperature. […] IC50 was generated using no LCK as the low control and DMSO as the high control.

c-Cbl = c-Cbl (Homo sapiens (Human), UniProt P22681); assay: C-Cbl LCK Ub TR-FRET assay (C-cbl Lck HTRF); assay type: biochemical
Description: as §1

[1] = biological target: Human Cbl-b (residues 40-426) (Homo sapiens (Human), UniProt Q13191); assay: Cbl-b SPR assay; assay type: binding; settings: C-cbl SPR Kd vs Cbl-b SPR Kd
Description: Affinity of binding to Cbl-b and c-Cbl for compounds described herein was assessed by surface plasmon resonance (SPR) according to the following protocol.
A surface capture range of 1300-1500 RU of protein was used for both isoforms.
For SPR measurements, 6 concentrations with 2 fold serial dilution were measured with blanks flanking each series for double referencing. […] SPR sensorgrams were recorded in multi-cycle kinetics format, with a contact time of 60 seconds and a flow rate of 40 μl/min, the dissociation time was varied between 120-1200 seconds aiming for 4-5 half-lives of the measured interaction.
Kinetic and affinity parameters were extracted from the multicycle kinetics data fitting to a 1:1 binding model using the Biacore™ Incyte evaluation software (Cytiva).
Chaser assay utilize a single cycle kinetics SPR experiment with a contact time of 120 seconds, a flow rate of 50 μl/min and a dissociation time of 450 seconds. Single cycle kinetics titration utilized an initial blank injection and 5 concentrations with 2 fold serial dilution with a maximum concentration of 500 nM, blanked to a preceding 6 point blank single cycle kinetics injection for double referencing.
The kd is measured independently by determining the percentage unoccupied compound binding site over time by measuring the binding of a chaser compound measured by SPR.
Chaser binding was measured by a multicycle kinetics SPR experiment using a contact time of 20 seconds, a flow rate of 30 μl/min, and a dissociation time of 120 seconds. […] The % compound bound at a given time was determined by comparison to a single injection of chaser preceding the single cycle kinetics titration defined below. % Compound Bound=(1−(RUT/RUT0))*100
The % compound bound is plotted against time in seconds and fit to a single exponential, where the exponent represents the kd of the compound-protein complex. The single cycle kinetics experiment of the compound is then fit with a fixed kd determined using the chaser.

Sequence of Cbl-b (Q13191 40-426): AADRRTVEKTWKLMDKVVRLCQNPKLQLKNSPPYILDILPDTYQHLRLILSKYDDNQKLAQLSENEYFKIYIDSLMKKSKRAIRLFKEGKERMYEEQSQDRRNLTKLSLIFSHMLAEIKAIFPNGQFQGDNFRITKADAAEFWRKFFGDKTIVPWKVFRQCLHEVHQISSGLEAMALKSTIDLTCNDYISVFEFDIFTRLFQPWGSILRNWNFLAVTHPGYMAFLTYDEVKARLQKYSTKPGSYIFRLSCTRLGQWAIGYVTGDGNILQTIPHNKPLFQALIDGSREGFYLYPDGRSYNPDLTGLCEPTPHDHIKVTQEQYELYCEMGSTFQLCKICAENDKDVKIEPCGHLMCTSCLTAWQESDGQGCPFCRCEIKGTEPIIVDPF
Sequence of Human Cbl-b (residues 40-426) (Q13191 40-426): as above
Sequence of c-Cbl (P22681 47-435): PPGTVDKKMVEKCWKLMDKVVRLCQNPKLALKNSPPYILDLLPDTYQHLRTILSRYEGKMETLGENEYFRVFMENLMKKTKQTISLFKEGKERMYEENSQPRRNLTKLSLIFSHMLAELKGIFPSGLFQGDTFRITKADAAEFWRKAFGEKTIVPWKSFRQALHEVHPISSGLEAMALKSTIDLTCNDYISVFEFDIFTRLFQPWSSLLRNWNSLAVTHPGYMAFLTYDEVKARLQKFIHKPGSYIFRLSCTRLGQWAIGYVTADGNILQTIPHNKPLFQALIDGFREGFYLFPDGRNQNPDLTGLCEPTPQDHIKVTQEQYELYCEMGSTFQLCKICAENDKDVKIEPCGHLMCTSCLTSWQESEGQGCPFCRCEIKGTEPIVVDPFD

## Cn1cnnc1[C@](O)(c1cccc(N2Cc3c(cc(CNC4(C)CCC4)cc3C(F)(F)F)C2=O)c1)C1CCC1 (single isomer, unassigned) [Compound 1]
Cbl-b
  IC50: 8300 nM
  fold-selectivity (Cbl-b over C-cbl): (1.7x)
c-Cbl
  IC50: 14100 nM

## CC(C)[C@H]1CN(C)CCN1Cc1cc2c(c(C(F)(F)F)c1)CN(c1cccc([C@@H](c3nncn3C)C3COC3)c1)C2=O (single isomer, unassigned) [Compound 10]
Cbl-b
  IC50: 12 nM
  fold-selectivity (Cbl-b over C-cbl): (2.0x)
c-Cbl
  IC50: 24 nM

## CC(C)[C@H]1CN(C)CCN1Cc1cc2c(c(C(F)(F)F)c1)CN(c1cccc([C@H](c3nncn3C)C3COC3)c1)C2=O (single isomer, unassigned) [Compound 11]
Cbl-b
  IC50: 5100 nM
  fold-selectivity (Cbl-b over C-cbl): (3.9x)
c-Cbl
  IC50: ≥ 20000 nM

## Cn1cnnc1[C@H](c1cccc(N2Cc3c(cc(CNC4(C)CCC4)cc3C(F)(F)F)C2=O)c1)N1CCC1 (single isomer, unassigned) [Compound 32]
Cbl-b
  IC50: 3800 nM
  fold-selectivity (Cbl-b over C-cbl): (5.3x)
c-Cbl
  IC50: 20000 nM

## Cn1cnnc1[C@@H](c1cccc(N2Cc3c(cc(CNC4(C)CCC4)cc3C(F)(F)F)C2=O)c1)N1CCC1 (single isomer, unassigned) [Compound 33]
Cbl-b
  IC50: 150 nM
  fold-selectivity (Cbl-b over C-cbl): (4.8x)
c-Cbl
  IC50: 720 nM

## C[C@H](NC1CCC1)c1cc2c(c(C(F)(F)F)c1)CN(c1cccc(C3(c4nncn4C)CC(F)(F)C3)c1)C2=O (single isomer, unassigned) [Compound 37]
Cbl-b
  IC50: 6.6 nM
  fold-selectivity (Cbl-b over C-cbl): (1.5x)
c-Cbl
  IC50: 9.9 nM

## C[C@@H](NC1CCC1)c1cc2c(c(C(F)(F)F)c1)CN(c1cccc(C3(c4nncn4C)CC(F)(F)C3)c1)C2=O (single isomer, unassigned) [Compound 38]
Cbl-b
  IC50: 11 nM
  fold-selectivity (Cbl-b over C-cbl): (2.9x)
c-Cbl
  IC50: 32 nM

## CO[C@H](c1cccc(N2Cc3c(cc(CNC4(C)CCC4)cc3C(F)(F)F)C2=O)c1)c1nncn1C (single isomer, unassigned) [Compound 42]
Cbl-b
  IC50: 180 nM
  fold-selectivity (Cbl-b over C-cbl): (1.5x)
c-Cbl
  IC50: 270 nM

## CO[C@@H](c1cccc(N2Cc3c(cc(CNC4(C)CCC4)cc3C(F)(F)F)C2=O)c1)c1nncn1C (single isomer, unassigned) [Compound 43]
Cbl-b
  IC50: 470 nM
  fold-selectivity (Cbl-b over C-cbl): (1.2x)
c-Cbl
  IC50: 560 nM

## Cn1cnnc1[C@@H](OC1CC1)c1cccc(N2Cc3c(cc(CNC4(C)CCC4)cc3C(F)(F)F)C2=O)c1 (single isomer, unassigned) [Compound 44]
Cbl-b
  IC50: 4200 nM
  fold-selectivity (Cbl-b over C-cbl): (2.4x)
c-Cbl
  IC50: 10000 nM

## Cn1cnnc1[C@H](OC1CC1)c1cccc(N2Cc3c(cc(CNC4(C)CCC4)cc3C(F)(F)F)C2=O)c1 (single isomer, unassigned) [Compound 45]
Cbl-b
  IC50: 290 nM
  fold-selectivity (Cbl-b over C-cbl): (1.4x)
c-Cbl
  IC50: 410 nM

## Cn1cnnc1[C@@H](OC1CCC1)c1cccc(N2Cc3c(cc(CNC4(C)CCC4)cc3C(F)(F)F)C2=O)c1 (single isomer, unassigned) [Compound 46]
Cbl-b
  IC50: ≥ 20000 nM
  fold-selectivity (Cbl-b over C-cbl): (1.0x)
c-Cbl
  IC50: 20000 nM

## CO[C@@](c1cccc(N2Cc3c(cc(CNC4(C)CCC4)cc3C(F)(F)F)C2=O)c1)(c1nncn1C)C1CCC1 (single isomer, unassigned) [Compound 118]
Cbl-b
  IC50: ≥ 20000 nM
  fold-selectivity (Cbl-b over C-cbl): 1.0x

## Cn1cnnc1[C@H](c1cccc(N2Cc3c(cc(CNC4(C)CCC4)cc3C(F)(F)F)C2=O)c1)C1CCOCC1.O=CO (single isomer, unassigned) [Compound 291]
Cbl-b
  fold-selectivity (Cbl-b over C-cbl): 4.3x
[1]
  Fold of selectivity: 2.1×

## Cn1cnnc1[C@@H](C[C@H]1COCCO1)c1cccc(N2Cc3c(cc(CNC4(C)CCC4)cc3C(F)(F)F)C2=O)c1 (single isomer, unassigned) [Compound 295, 2-(3-((S)-2-((S)-1,4-dioxan-2-yl)-1-(4-methyl-4H-1,2,4-triazol-3-yl)ethyl)phenyl)-6-(((1-methylcyclobutyl)amino)methyl)-4-(trifluoromethyl)isoindolin-1-one]
Cbl-b
  IC50: ≥ 20000 nM

## Cn1cnnc1[C@H](c1cccc(N2Cc3c(cc(CNC4(C)CCC4)cc3C(F)(F)F)C2=O)c1)[C@H]1C[C@H](C)C1 (single isomer, unassigned) [Compound 376]
Cbl-b
  IC50: 55 nM

## CC1(NCc2cc3c(c(C(F)(F)F)c2)CN(c2cccc([C@@H](C4COC4)n4ccnn4)c2)C3=O)CCC1 (single isomer, unassigned) [Compound 436, (R)-6-(((1-methylcyclobutyl)amino)methyl)-2-(3-(oxetan-3-yl(1H-1,2,3-triazol-1-yl)methyl)phenyl)-4-(trifluoromethyl)isoindolin-1-one]
Cbl-b; Example 121
  IC50: 570 nM

## Cn1cnnc1[C@]1(c2cc(NC3CCCCC3)nc(N3Cc4c(cc(CNC5(C)CCC5)cc4C(F)(F)F)C3=O)c2)C[C@@H](C)C1 [Compound 50, 2-(6-(cyclohexylamino)-4-((1r,3r)-3-methyl-1-(4-methyl-4H-1,2,4-triazol-3-yl)cyclobutyl)pyridin-2-yl)-6-(((1-methylcyclobutyl)amino)methyl)-4-(trifluoromethyl)isoindolin-1-one]
Cbl-b
  IC50: 31 nM
  fold-selectivity (Cbl-b over C-cbl): (1.7x)
[1]
  Fold of selectivity: 3.0×

## Cn1cnnc1[C@]1(c2cc(NC3CCCCC3)nc(N3Cc4c(cc(CNC5(C)CCC5)cc4C(F)(F)F)C3=O)c2)C[C@H](C)C1 [Compound 51, 2-(6-(cyclohexylamino)-4-((1s,3s)-3-methyl-1-(4-methyl-4H-1,2,4-triazol-3-yl)cyclobutyl)pyridin-2-yl)-6-(((1-methylcyclobutyl)amino)methyl)-4-(trifluoromethyl)isoindolin-1-one]
Cbl-b
  IC50: 38 nM
  fold-selectivity (Cbl-b over C-cbl): (1.6x)

## Cn1cnnc1[C@]1(c2cc(NC3CCCC3)nc(N3Cc4c(cc(CNC5(C)CCC5)cc4C(F)(F)F)C3=O)c2)C[C@@H](C)C1 [Compound 52, 2-(6-(cyclopentylamino)-4-((1r,3r)-3-methyl-1-(4-methyl-4H-1,2,4-triazol-3-yl)cyclobutyl)pyridin-2-yl)-6-(((1-methylcyclobutyl)amino)methyl)-4-(trifluoromethyl)isoindolin-1-one]
Cbl-b
  IC50: 7.2 nM
  fold-selectivity (Cbl-b over C-cbl): (1.3x)
[1]
  Fold of selectivity: 11×

## Cn1cnnc1[C@]1(c2cc(NC3CCCC3)nc(N3Cc4c(cc(CNC5(C)CCC5)cc4C(F)(F)F)C3=O)c2)C[C@H](C)C1 [Compound 53, 2-(6-(cyclopentylamino)-4-((1s,3s)-3-methyl-1-(4-methyl-4H-1,2,4-triazol-3-yl)cyclobutyl)pyridin-2-yl)-6-(((1-methylcyclobutyl)amino)methyl)-4-(trifluoromethyl)isoindolin-1-one]
Cbl-b
  IC50: 5.7 nM
  fold-selectivity (Cbl-b over C-cbl): (1.1x)
[1]
  Fold of selectivity: 9.2×

## Cn1cnnc1[C@]1(c2cc(OC3CCCC3)nc(N3Cc4c(cc(CNC5(C)CCC5)cc4C(F)(F)F)C3=O)c2)C[C@H](C)C1 [Compound 54, 2-(6-(cyclopentyloxy)-4-((1s,3s)-3-methyl-1-(4-methyl-4H-1,2,4-triazol-3-yl)cyclobutyl)pyridin-2-yl)-6-(((1-methylcyclobutyl)amino)methyl)-4-(trifluoromethyl)isoindolin-1-one]
Cbl-b
  IC50: 8.2 nM
  fold-selectivity (Cbl-b over C-cbl): (1.4x)
[1]
  Fold of selectivity: 11×

## Cn1cnnc1[C@]1(c2cc(OC3CCCC3)nc(N3Cc4c(cc(CNC5(C)CCC5)cc4C(F)(F)F)C3=O)c2)C[C@@H](C)C1 [Compound 55, 2-(6-(cyclopentyloxy)-4-((1r,3r)-3-methyl-1-(4-methyl-4H-1,2,4-triazol-3-yl)cyclobutyl)pyridin-2-yl)-6-(((1-methylcyclobutyl)amino)methyl)-4-(trifluoromethyl)isoindolin-1-one]
Cbl-b
  IC50: 6.7 nM
  fold-selectivity (Cbl-b over C-cbl): (1.4x)

## CCNc1cc(C2(c3nncn3C)CC(F)(F)C2)cc(N2Cc3c(cc(CNC4(C)CCC4)cc3C(F)(F)F)C2=O)n1 [Compound 62, 2-(4-(3,3-difluoro-1-(4-methyl-4H-1,2,4-triazol-3-yl)cyclobutyl)-6-(ethylamino)pyridin-2-yl)-6-(((1-methylcyclobutyl)amino)methyl)-4-(trifluoromethyl)isoindolin-1-one]
Cbl-b
  IC50: 5.5 nM

## CC(=O)N1CC(c2cccc(N3Cc4c(cc(CNC5(C)CCC5)cc4C(F)(F)F)C3=O)c2)(c2nncn2C)C1 [Compound 112, 2-(3-(1-acetyl-3-(4-methyl-4H-1,2,4-triazol-3-yl)azetidin-3-yl)phenyl)-6-(((1-methylcyclobutyl)amino)methyl)-4-(trifluoromethyl)isoindolin-1-one]
Cbl-b
  IC50: ≥ 20000 nM
  fold-selectivity (Cbl-b over C-cbl): 1.0x

From patent US12187709B2 (Genentech, Inc., priority 2021, dated 2025)
